Test results from patent EP4763845A1, “CYANO AROMATIC RING DERIVATIVE AND PHARMACEUTICAL USE THEREOF” (Haisco Pharmaceutical Group Co., Ltd., priority 2023, dated 2025).
Read-outs that look alike come from different tables or passages of the source.

How the values were obtained:
Assay type in all cases: cell-based
hERG potassium channel = target: T1, hERG potassium channel (Homo sapiens, UniProt Q12809); test: hERG potassium ion channel test (manual patch-clamp, CHO cells)
T1 construct: expressed in transfected cells; host or cells: CHO cells stably expressing hERG
T1 sequence (Q12809 whole entry): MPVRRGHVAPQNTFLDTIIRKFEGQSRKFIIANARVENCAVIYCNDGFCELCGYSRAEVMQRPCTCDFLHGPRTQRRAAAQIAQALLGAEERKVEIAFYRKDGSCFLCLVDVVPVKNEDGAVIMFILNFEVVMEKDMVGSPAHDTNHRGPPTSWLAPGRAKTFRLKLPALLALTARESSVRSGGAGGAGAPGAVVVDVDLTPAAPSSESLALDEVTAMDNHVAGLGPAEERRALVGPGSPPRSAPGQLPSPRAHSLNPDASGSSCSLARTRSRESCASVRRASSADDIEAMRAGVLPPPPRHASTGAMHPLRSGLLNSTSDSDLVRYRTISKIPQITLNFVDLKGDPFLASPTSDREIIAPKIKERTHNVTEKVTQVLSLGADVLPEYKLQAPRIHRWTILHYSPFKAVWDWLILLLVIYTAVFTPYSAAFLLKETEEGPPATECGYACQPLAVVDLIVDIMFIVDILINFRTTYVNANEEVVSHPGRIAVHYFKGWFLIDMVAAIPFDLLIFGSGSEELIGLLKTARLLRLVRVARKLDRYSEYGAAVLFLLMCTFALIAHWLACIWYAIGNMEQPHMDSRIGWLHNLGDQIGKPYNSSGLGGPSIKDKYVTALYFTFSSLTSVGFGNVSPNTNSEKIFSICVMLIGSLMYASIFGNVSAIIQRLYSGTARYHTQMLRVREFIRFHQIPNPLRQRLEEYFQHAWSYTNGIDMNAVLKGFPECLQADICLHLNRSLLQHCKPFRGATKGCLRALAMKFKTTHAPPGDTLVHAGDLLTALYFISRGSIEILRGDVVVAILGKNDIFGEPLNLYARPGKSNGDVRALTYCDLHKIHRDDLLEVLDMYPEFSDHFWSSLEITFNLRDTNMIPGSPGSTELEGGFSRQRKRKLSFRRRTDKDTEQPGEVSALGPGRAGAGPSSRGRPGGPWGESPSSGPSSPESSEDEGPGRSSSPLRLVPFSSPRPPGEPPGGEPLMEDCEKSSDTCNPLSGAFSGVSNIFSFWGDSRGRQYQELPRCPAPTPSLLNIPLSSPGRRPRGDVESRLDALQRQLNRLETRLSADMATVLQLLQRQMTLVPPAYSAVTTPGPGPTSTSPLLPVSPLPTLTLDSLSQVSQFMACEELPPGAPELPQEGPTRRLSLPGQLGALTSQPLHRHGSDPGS
Excerpt: Experimental platform: Electrophysiological manual patch-clamp system
Cell line: Chinese hamster ovary (CHO) cell lines stably expressing hERG potassium ion channel
Experimental method: In Chinese Hamster Ovary (CHO) cells stably expressing hERG potassium channel, whole cell patch-clamp technique was used to record hERG potassium channel current at room temperature. The glass microelectrode was made of a glass electrode blank (BF150-86-10, Sutter) by a puller. The tip resistance after filling the liquid in the electrode was about 2-5 MΩ. The glass microelectrode can be connected to the patch-clamp amplifier by inserting the glass microelectrode into an amplifier probe. The clamping voltage and data recording were controlled and recorded by the pClamp 10 software through a computer. The sampling frequency was 10 kHz, and the filtering frequency was 2 kHz. After the whole cell records were obtained, the cells were clamped at -80 mV, and the step voltage that induced the hERG potassium current (I hERG) was depolarised from -80 mV to +20 mV for 2 s, then repolarised to -50 mV, and returned to -80 mV after 1 s. This voltage stimulation was given every 10 s, and the administration process was started after the hERG potassium current was confirmed to be stable (at least 1 minute). The compound was administered for at least 1 minute at each test concentration, and at least 2 cells (n ≥ 2) were tested at each concentration.
Data processing: Data analysis processing was carried out by using pClamp 10, GraphPad Prism 5 and Excel software.
Compound IC50 was calculated using GraphPad Prism 5 software by fitting according to the following equation: Y = Bottom + (Top−Bottom)/(1+10^(∧)((LogIC50−X)*HillSlope)) [formula] where X represents the Log value of the tested concentration of the test sample, Y represents the inhibition percentage at the corresponding concentration, and Bottom and Top represent the minimum and maximum inhibition percentage, respectively.

VCaP cells = test: VCaP cell proliferation inhibition experiment (CellTiter-Glo); settings: Homo sapiens, 168 h
Protocol: After centrifugation and resuspension, viable cell counting was performed using a Vi-Cell XR cell counter. […] Then, 180 µl of the cell suspension was added per well to a 96-well cell culture plate at a cell density of 7,500 cells/well. At the time of seeding, T0 wells were also prepared. The following day, R1881 at a final concentration of 0.1 nM and compounds at various concentrations were added. The plate was placed back into the incubator and cultured for an additional 7 days. At the time of compound addition, the T0 plate was measured using the CellTiter-Glo (CTG) kit (Promega, Cat. No. G7572) and recorded as RLU0. Following incubation, 75 µl of pre-thawed and room temperature-equilibrated CellTiter-Glo solution was added to each well. […] The results were processed according to Equation (2). […] Growth% = (RLUcompound−RLU0)/(RLUcontrol−RLU0) × 100% [formula]

AR protein = target: T2, AR protein (Homo sapiens, UniProt P10275); test: Detection of AR degradation in VCaP cells (automated western blot); settings: for DC50: degradation of AR protein in VCaP cells, 24 hours incubation, read-out: DC50
T2 construct: VCap is a human prostate cancer cell line purchased from ATCC; host or cells: VCaP human prostate cancer cells
T2 sequence (P10275 1-920): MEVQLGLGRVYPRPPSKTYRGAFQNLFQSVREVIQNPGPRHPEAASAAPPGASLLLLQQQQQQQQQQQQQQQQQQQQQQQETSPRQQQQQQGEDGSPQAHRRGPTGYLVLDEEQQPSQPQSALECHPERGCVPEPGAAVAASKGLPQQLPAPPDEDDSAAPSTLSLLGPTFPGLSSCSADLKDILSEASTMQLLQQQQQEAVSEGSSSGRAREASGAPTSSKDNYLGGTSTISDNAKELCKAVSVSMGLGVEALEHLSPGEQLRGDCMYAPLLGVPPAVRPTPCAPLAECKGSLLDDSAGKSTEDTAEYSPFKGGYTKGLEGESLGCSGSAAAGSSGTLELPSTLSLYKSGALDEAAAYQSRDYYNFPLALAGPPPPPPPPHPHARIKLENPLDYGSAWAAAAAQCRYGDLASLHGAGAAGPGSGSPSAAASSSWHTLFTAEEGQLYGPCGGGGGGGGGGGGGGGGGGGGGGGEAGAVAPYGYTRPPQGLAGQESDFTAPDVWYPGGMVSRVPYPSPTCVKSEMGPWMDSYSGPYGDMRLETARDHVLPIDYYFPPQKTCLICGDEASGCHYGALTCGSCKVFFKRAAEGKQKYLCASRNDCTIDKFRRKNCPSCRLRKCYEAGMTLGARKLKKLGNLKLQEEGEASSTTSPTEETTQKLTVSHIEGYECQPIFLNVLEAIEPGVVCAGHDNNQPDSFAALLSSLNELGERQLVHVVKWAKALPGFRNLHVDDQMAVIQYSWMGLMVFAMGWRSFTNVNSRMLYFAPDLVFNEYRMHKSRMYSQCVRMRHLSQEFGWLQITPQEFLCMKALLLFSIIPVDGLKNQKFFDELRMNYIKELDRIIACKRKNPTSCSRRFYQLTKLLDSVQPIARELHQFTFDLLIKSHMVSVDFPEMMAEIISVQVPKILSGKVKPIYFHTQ
Protocol: VCap is a human prostate cancer cell line purchased from ATCC and cultured under the following conditions: DMEM + 10% FBS + 1% penicillin-streptomycin solution. The cells were cultured in a 37°C, 5% CO2 incubator. The cells were seeded in a 6-well plate, with 5 × 10^5 cells/well. After seeding, compounds at various concentrations were added, and the plate was incubated for 24 hours in the 37°C, 5% CO2 incubator. Following incubation, the cells were harvested and RIPA lysis buffer (beyotime, Cat. P0013B) was added. The cells were lysed on ice for 15 minutes and centrifuged at 12,000 rpm at 4°C for 10 minutes. The supernatant protein samples were collected and the protein was quantified using the BCA kit (Beyotime, Cat. P0009). Then the protein was diluted to 0.25 mg/mL. The expressions of AR (CST, Cat.5153S) and the internal reference β-actin (CST, Cat. 3700S) were detected using a fully automated western blot quantitative analyser (Proteinsimple). Using the "Compass for SW" software, the relative peak area of AR was calculated when the internal reference area was 10,000. The proportion of AR relative to the solvent control group at various drug concentrations was calculated according to Equation (1), where ARtreat represents the relative peak area of the compound-treated group, and ARsolvent represents the relative peak area of the solvent control group. The processed data obtained from Equation (1) were analysed using GraphPad Prism 8.3.0 software, and the DC50 value was calculated using a four-parameter nonlinear regression model. The degradation rate at a specified concentration was determined as 100-AR%. AR% = ARtreat/ ARsolvent × 100% [formula]

[1] = chinese hamster, inhibitory activity against hERG potassium channel current, CHO cells, whole cell patch-clamp, read-out: IC50

SMILES	GI50 (VCaP cells) [nM]	DC50 (AR protein) [nM]	also measured
COc1cc(O[C@H]2C(C)(C)[C@H](NC(=O)c3ccc(N4CCC(CN5CCN6c7cc(F)c(N8CCC(=O)NC8=O)cc7CC[C@@H]6C5)CC4)cc3)C2(C)C)ccc1C#N [Compound 28]			IC50 (hERG potassium channel): > 40000 nM
[2H]C([2H])([2H])Oc1cc(O[C@H]2C(C)(C)[C@H](NC(=O)c3ccc(N4CCC5(CC4)CC(N4CCN6c7cc(F)c(N8CCC(=O)NC8=O)cc7CC[C@@H]6C4)C5)cc3)C2(C)C)ccc1C#N [Compound 94]	< 300		
COc1cc(O[C@H]2C(C)(C)[C@H](NC(=O)c3ccc(N4CCC(CN5CCN6c7cc(F)c(C8CCC(=O)NC8=O)cc7CC[C@@H]6C5)CC4)cc3)C2(C)C)ccc1C#N (stereo partly drawn) [Trifluoroacetate of compound 2]		< 100	IC50 (hERG potassium channel): > 40000 nM
COc1cc(O[C@H]2C(C)(C)[C@H](NC(=O)c3ccc(N4CCC(CN5CCN6c7cc(F)c(C(=O)NC8CCC(=O)NC8=O)cc7CC[C@H]6C5)CC4)cc3)C2(C)C)ccc1C#N (stereo partly drawn) [Trifluoroacetate of compound 3]		< 100	IC50 (hERG potassium channel; [1]): > 40000 nM
COc1cc(O[C@H]2C(C)(C)[C@H](NC(=O)c3ccc(N4CCC(CN5CCN6c7cc(F)c(C8CCC(=O)NC8=O)cc7CC[C@H]6C5)CC4)cc3)C2(C)C)ccc1C#N (stereo partly drawn) [Trifluoroacetate of compound 1]		< 100	IC50 (hERG potassium channel; chinese hamster, cho cells): > 40000 nM
CC1(C)[C@H](NC(=O)c2ccc(N3CCC4(CC3)CC(CN3CCN5c6cc(F)c(C7CCC(=O)NC7=O)cc6CC[C@H]5C3)C4)cc2)C(C)(C)[C@H]1Oc1ccc(C#N)c2ncccc12 (stereo partly drawn) [Compound 73]		< 100	IC50 (hERG potassium channel; [1]): > 40000 nM
CC1(C)[C@H](NC(=O)c2ccc(N3CCC(CN4CCN5c6cc(F)c(C(=O)N[C@H]7CCC(=O)NC7=O)cc6CC[C@H]5C4)CC3)cc2)C(C)(C)[C@H]1Oc1ccc(C#N)c2ncccc12 [Compound 35]		< 100	IC50 (hERG potassium channel; [1]): > 40000 nM
[2H]C([2H])([2H])Oc1cc(O[C@H]2C(C)(C)[C@H](NC(=O)c3ccc(N4CCC(CN5CCN6c7cc(F)c(C8CCC(=O)NC8=O)cc7CC[C@H]6C5)CC4)cc3)C2(C)C)ccc1C#N (stereo partly drawn) [Compound 37]	< 300	< 100	
[2H]C([2H])([2H])Oc1cc(O[C@H]2C(C)(C)[C@H](NC(=O)c3ccc(N4CCC(CN5CCN6c7cc(F)c(C(=O)N[C@H]8CCC(=O)NC8=O)cc7CC[C@@H]6C5)CC4)nn3)C2(C)C)ccc1C#N [Compound 87]	< 500		
CC1(C)[C@H](NC(=O)c2ccc(N3CCC(CN4CCN5c6cc(F)c(N7CCC(=O)NC7=O)cc6CC[C@H]5C4)CC3)cc2)C(C)(C)[C@H]1Oc1ccc(C#N)c2ncccc12 [Trifluoroacetate of compound 33]	< 500	< 100	
[2H]C([2H])([2H])Oc1cc(O[C@H]2C(C)(C)[C@H](NC(=O)c3ccc(N4CCC(CN5CCN6c7cc(F)c(C8CCC(=O)NC8=O)cc7CC[C@H]6C5)CC4)nn3)C2(C)C)ccc1C#N (stereo partly drawn) [Compound 86]	< 300		
CC1(C)[C@H](NC(=O)c2ccc(N3CCC(CN4CCN5c6cc(F)c(C(=O)N[C@H]7CCC(=O)NC7=O)cc6CC[C@@H]5C4)CC3)cc2)C(C)(C)[C@H]1Oc1ccc(C#N)c(Cl)c1 [Compound 52]	< 300		
COc1cc(O[C@H]2C(C)(C)[C@H](NC(=O)c3ccc(N4CCC(CN5CCN6c7cc(F)c(C(=O)NC8CCC(=O)NC8=O)cc7CC[C@@H]6C5)CC4)cc3)C2(C)C)ccc1C#N (stereo partly drawn) [Trifluoroacetate of compound 4]		< 100	IC50 (hERG potassium channel; [1]): > 40000 nM
CC1(C)[C@H](NC(=O)c2ccc(N3CCC4(CC3)CC(CN3CCN5c6cc(F)c(C7CCC(=O)NC7=O)cc6CC[C@@H]5C3)C4)cc2)C(C)(C)[C@H]1Oc1ccc(C#N)c2ncccc12 (stereo partly drawn) [Compound 72]		< 100	
[2H]C([2H])([2H])Oc1cc(O[C@H]2C(C)(C)[C@H](NC(=O)c3ccc(N4CCC(CN5CCN6c7cc(F)c(C(=O)N[C@H]8CCC(=O)NC8=O)cc7CC[C@@H]6C5)CC4)cc3)C2(C)C)ccc1C#N [Compound 40]	< 300	< 100	
CC1(C)[C@H](NC(=O)c2ccc(N3CCC4(CC3)CC(CN3CCN5c6cc(F)c(C(=O)N[C@H]7CCC(=O)NC7=O)cc6CC[C@@H]5C3)C4)cc2)C(C)(C)[C@H]1Oc1ccc(C#N)c(Cl)c1 [Compound 58]		< 100	
CC1(C)[C@H](NC(=O)c2ccc(N3CCC(CN4CCN5c6cc(F)c(C(=O)N[C@H]7CCC(=O)NC7=O)cc6CC[C@@H]5C4)CC3)cc2)C(C)(C)[C@H]1Oc1ccc(C#N)c2ncccc12 [Compound 34]		< 100	IC50 (hERG potassium channel; [1]): > 40000 nM
COc1cc(O[C@H]2C(C)(C)[C@H](NC(=O)c3ccc(N4CCC(N5CCN6c7cc(F)c(C(=O)N[C@H]8CCC(=O)NC8=O)cc7CC[C@H]6C5)CC4)cc3)C2(C)C)ccc1C#N [Trifluoroacetate of compound 24]		< 100	
CC1(C)[C@H](NC(=O)c2ccc(N3CCC(CN4CCN5c6cc(F)c(C7CCC(=O)NC7=O)cc6CC[C@H]5C4)CC3)cc2)C(C)(C)[C@H]1Oc1ccc(C#N)c(C2CC2)c1 (stereo partly drawn) [Compound 118]			IC50 (hERG potassium channel; inhibitory activity against hERG potassium channel current, CHO cells, whole cell patch-clamp, read-out: IC50): > 40000 nM; Degradation rate % (AR protein; AR protein in VCaP cells, concentration of 30 nM, 24 hours): >70%
